# Results published in PubChem BioAssay (NCI).
#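 Interpolation was linear, between the two tested concentrations surrounding the appropriate level; five concentrations were tested over 48 hours in 96-well plates. GI50 marks 50% less growth. TGI marks complete inhibition of growth.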
# Key:
# Assay in all cases: NCI-60 cell line screen, 48 h
# [1] = system: IGROV1 ovarian
# [2] = system: SK-MEL-28 melanoma
# [3] = system: KM12 colon
# [4] = system: HT29 colon
# [5] = system: SNB-19 CNS
# [6] = system: SK-MEL-2 melanoma
# [7] = system: MOLT-4 leukemia
# [8] = system: SF-268 CNS
# [9] = system: SW-620 colon
# [10] = system: T-47D breast
SMILES,TGI [1] [µM],TGI [2] [µM],TGI [3] [µM],TGI [4] [µM],TGI [5] [µM],TGI [6] [µM],TGI [7] [µM],TGI [8] [µM],TGI [9] [µM],GI50 [1] [µM],GI50 [2] [µM],GI50 [3] [µM],GI50 [4] [µM],GI50 [6] [µM],GI50 [7] [µM],GI50 [8] [µM],GI50 [9] [µM],GI50 [5] [µM],GI50 [10] [µM],TGI [10] [µM]
CC1(c2cccc3ccccc23)OC(=O)c2ccccc21 (stereo not given),55.3,75.8,> 100,53.8,> 100,62.6,55.6,93,68.2,,,,,,,,,,,
O=C(CO)CC(=O)C(=O)Nc1ccccc1,> 100,> 100,> 100,> 100,> 100,> 100,> 100,> 100,> 100,,,,,,,,,,,
O=C1C(Cl)=C(Nc2cccc(Cl)c2)C(=O)N1Cc1ccccc1Cl,73.8,34.2,49.6,> 100,,23.1,> 100,36,18.6,12.3,9.95,10.7,5.45,4.33,0.37,13.1,2.82,,,
Fc1ccc2c(c1)c(-c1nc(-c3c[nH]c4ncccc34)cs1)cn2CCCN1CCCCC1,,3.26,,3.24,,4.25,,3.42,3.75,,1.75,,1.68,1.96,,1.64,1.92,,,
N#C/C(=C/c1ccc[nH]1)P(=O)(O)O,,> 100,> 100,> 100,> 100,> 100,> 100,> 100,> 100,,,,,,,,,,,
Clc1cc(Cc2cc(Cl)c(Cl)c3c2OCOC3)c2c(c1Cl)COCO2,> 100,> 100,> 100,> 100,> 100,> 100,> 100,> 100,> 100,,,,,,,,,,,
N#CC(C(=O)CCC(=O)C(C#N)c1ccccc1)c1ccccc1 (stereo not given),> 100,> 100,> 100,> 100,> 100,> 100,> 100,> 100,> 100,,,,,,,,,,,
CC(C)(C)c1nn(-c2ccccc2)c2c1C(=O)CSC(c1ccccc1Cl)N2 (stereo not given),43,22.5,14.7,6.55,15.2,13.4,16.5,18.5,,3.52,5.18,1.48,1.97,2.1,3.42,2.76,,2.54,6.1,30
Cc1ccccc1N=Nc1ccc(NC(=O)c2ccnn2C)c(C)c1,> 100,> 100,> 100,> 100,> 100,> 100,,> 100,> 100,25.1,> 100,> 100,> 100,28.6,,31.7,> 100,24.4,9.9,> 100
CCOc1ccccc1NC(=O)CC1SC(=Nc2ccc([N+](=O)[O-])cc2)NC1=O (stereo not given),61.4,70,37,50.6,> 100,41.5,60.3,> 100,52.7,,,,,,,,,,,
COC(=O)/C([Se]c1c(C)cc(C)cc1C)=C(\[Se]c1c(C)cc(C)cc1C)C(=O)OC,> 100,,> 100,> 100,> 100,> 100,> 100,> 100,> 100,,,,,,,,,,,
O=C1NC(=O)C2C(=O)NC(=O)C1C2(c1ccccc1)c1cc[nH]c1 (stereo not given),> 100,> 100,> 100,> 100,> 100,> 100,> 100,> 100,> 100,,,,,,,,,,,
N#CC(C(=O)/C(=N/N)C(C#N)c1ccccc1)c1ccccc1 (stereo not given),> 100,> 100,> 100,> 100,> 100,> 100,> 100,> 100,> 100,,,,,,,,,,,
N/C(=C\c1ccc(OCc2ccccc2)c(OCc2ccccc2)c1[N+](=O)[O-])C(=O)O,> 100,> 100,> 100,> 100,> 100,> 100,> 100,> 100,> 100,,,,,,,,,,,
Oc1cc(O)c2c(-c3c(O)c(-c4ccc(O)c(O)c4)[o+]c4cc(O)cc(O)c34)c(O)c(-c3ccc(O)c(O)c3)[o+]c2c1,> 100,> 100,> 100,> 100,> 100,,> 100,> 100,> 100,,,,,,,,,,,
Cc1cc2nc(CCC(=O)O)c(=O)[nH]c2cc1C,> 100,> 100,> 100,> 100,> 100,> 100,> 100,> 100,,,,,,,,,,,,
Nc1ncnc2c1nc(Cl)n2C1OC2COP(=O)(O)OC2C1O (stereo not given),> 300,> 300,> 300,> 300,> 300,> 300,,> 300,> 300,,,,,,,,,,,> 300
CC(=O)[CH-]C(=O)c1ccccc1.CC(=O)[CH-]C(=O)c1ccccc1.[Eu+3].[OH-].[OH3+],> 100,> 100,,> 100,> 100,,> 100,,> 100,> 100,> 100,,> 100,,> 100,,> 100,> 100,,
CCC1(c2c(F)c(F)c(N)c(F)c2F)CCC(=O)NC1=O (stereo not given),> 100,> 100,> 100,> 100,> 100,> 100,> 100,> 100,> 100,,,,,,,,,,,

SMILES,TGI [1] [µM],TGI [2] [µM],TGI [3] [µM],TGI [4] [µM],TGI [5] [µM],TGI [6] [µM],TGI [7] [µM],TGI [8] [µM],TGI [9] [µM],GI50 [1] [µM],GI50 [2] [µM],GI50 [3] [µM],GI50 [4] [µM],GI50 [6] [µM],GI50 [7] [µM],GI50 [8] [µM],GI50 [9] [µM],GI50 [5] [µM],GI50 [10] [µM],TGI [10] [µM]
O=[N+]([O-])c1nccn1CC(O)CN1CC1 (stereo not given),> 100,> 100,> 100,> 100,> 100,> 100,> 100,> 100,> 100,,,,,,,,,,,
CN(C)c1ccc([O][Bi]([Cl])[Cl])cc1,> 100,> 100,> 100,> 100,> 100,> 100,> 100,,> 100,> 100,> 100,> 100,> 100,> 100,> 100,,> 100,> 100,,
Cc1ccccc1C(=O)c1ccccc1O,> 100,> 100,> 100,> 100,> 100,> 100,> 100,> 100,> 100,,,,,,,,,,,
COC(=O)C(=O)OC1(C(C)=O)CC2(c3ccccc3)OC1(c1ccccc1)c1ccccc12 (stereo not given),41.4,,,30.7,47.3,,> 100,44,30.3,,,,,,,,,,,
CC(=O)[CH-]C(=O)c1ccccc1.CC(=O)[CH-]C(=O)c1ccccc1.CC1(C)C2CCC1(C)C([O-])C2.CC1(C)C2CCC1(C)C([O-])C2.[Ti+4],85.8,> 100,> 100,> 100,97.7,29.6,> 100,> 100,> 100,25.3,34.1,34.8,56.7,14.2,34.8,34.8,36.6,25.8,,
CC1(CO)OC(n2cc(C(=O)NC(=O)OCc3ccccc3)c(=O)[nH]c2=O)CC1O (stereo not given),> 100,> 100,> 100,> 100,> 100,,> 100,> 100,> 100,,,,,,,,,,,
CCCCCCCCCCCCCC(=O)CC(=O)c1c(O)cccc1O,> 100,> 100,> 100,> 100,99.2,41.4,52.7,> 100,50.2,,,,,,,,,,,
N#Cc1c(NN)nc(NN)c(C#N)c1-c1ccccc1,> 100,> 100,> 100,> 100,> 100,> 100,> 100,> 100,> 100,,,,,,,,,,,
CC(=O)[CH-]C(=O)c1ccccc1.CC(=O)[CH-]C(=O)c1ccccc1.CC(C)CCCC(C)[C@H]1CCC2[C@@H]3CC=C4C[C@@H]([O-])CC[C@]4(C)C3CC[C@@]21C.CC[O-].[Ti+4] (stereo not given in full),> 100,> 100,> 100,> 100,> 100,80.1,63.1,> 100,> 100,> 100,30.3,39.6,64,22.4,16.4,50.2,46.6,32.6,,
O=C(CNc1ccc2c(c1)C(=O)c1ccccc1C2=O)Nc1ccc2c(c1)C(=O)c1ccccc1C2=O,2.7,3.13,2.73,1.69,2.9,2,,1.71,0.371,0.681,1.68,1.4,0.451,0.697,,0.575,0.186,1.45,0.604,2.32
O=c1cc2ccccc2nn1Cc1cccc(Cl)c1,> 100,> 100,> 100,> 100,> 100,> 100,,> 100,> 100,,,,,,,,,,,
O=c1ccn(C2OC(CO/N=C/c3ccc(O)c(O)c3O)C(O)C2O)c(=O)[nH]1 (stereo not given),38.5,> 100,> 100,84.3,,> 100,,85.6,35.9,19.4,> 100,35.4,28.9,57.4,,26.5,19.1,,21.8,50.3
O=C1c2cc3c(cc2-c2c1c1ccc(Cl)cc1c(=O)n2CCCNCCO)OCO3,,3.26,2.61,2.02,,3.54,0.512,2.13,0.366,,1.43,1.17,0.135,1.97,0.031,0.0668,0.0506,,,
C[S+](C)CCOC(=O)C(=[N+]=[N-])c1ccc([N+](=O)[O-])cc1,> 100,,> 100,> 100,> 100,> 100,> 100,> 100,> 100,,,,,,,,,,,
Cc1ccc(-n2c3c(c4c(CN(C)C)c(O)ccc42)CCc2ccccc2C3=O)cc1,25.8,,40,> 100,> 100,44.5,39.3,50.5,33.7,10.8,,19.3,> 100,19.9,20.3,19.8,15.1,> 100,> 100,> 100
CCCCCC/C=C1\CCC(CN2CCCC2)C1=O (stereo not given),39.6,33.8,13.3,34.2,> 52.9,30.5,> 87,38.5,> 59.4,,,,,,,,,,,
CC(C)c1ccc(C2C3=C(N=C4SCC(=O)N42)C(=O)c2ccccc23)cc1 (stereo not given),> 100,> 100,> 100,> 100,> 100,> 100,> 100,> 100,> 100,,,,,,,,,,,
CCC/C(=N/N=C(N)N)c1ccc(NC(=O)c2cc3cc(OC)ccc3[nH]2)cc1,56.9,40.2,4.78,20,35.8,38.9,,29.9,20.1,20.2,10.5,2.28,4.49,18.3,,5.22,3.6,13.6,7.06,32.9
O=C(CC1(O)C(=O)Nc2c(Cl)ccc(Cl)c21)c1ccc2ccccc2c1 (stereo not given),41.4,32.6,17.8,8.61,53,26.3,38.9,36.2,12.5,,,,,,,,,,,
